Experiments:
[1] = mouse protection test (intraperitoneal infection, subcutaneous therapy 30 minutes after infection); type: in vivo, Mäuse; conditions: sc, Infektion intraperitoneal, Therapie 30 Minuten nach Infektion
Protocol: (§1) Die erfindungsgemäßen Verbindungen zeigen eine ausgezeichnete lokale Verträglichkeit, z. B, nach subkutaner Applikation, im Gegensatz zu den freien Carbonsäuren. Dazu wurden Mäuse über 5 Tage 2 x pro Tag mit 1 bis 10 % Lösungen der Wirkstoffe subkutan behandelt, entsprechend einer Dosis von 100 mg/kg bis 300 mg/kg. Während der Behandlungsperiode sowie nach Absetzen der Behandlung wurden die Tiere beobachtet. Es zeigte sich, daß die Mäuse, die mit den erfindungsgemäßen Verbindungen, z. […] Somit sind die erfindungsgemäßen Verbindungen lokal deutlich besser verträglich als die entsprechenden freien Carbonsäuren und es können Lösungen im oben genannten Konzentrationsbereich bei guter lokaler Verträglichkeit mehrfach angewendet werden. In einem Mäuseprotektionsversuch (Infektion intraperitoneal, Therapie 30 Minuten nach Infektion durch subkutane Gabe) konnte gezeigt werden, daß die Substanzen nach parenteraler Applikation eine gute protektive Wirkung bei erhöhter lokaler Verträglichkeit des Esters besitzen. Die erfindungsgemäßen Verbindungen sind damit in gleicher Dosis protektiv wirksam wie die deutlich schlechter verträglichen freien Carbonsäuren.

[2] = local tolerability after repeated subcutaneous application; type: in vivo; conditions: Mäuse, subkutan, 5 Tage 2 x pro Tag, 1 bis 10 % Lösungen, 100 mg/kg bis 300 mg/kg
Protocol: as §1

SMILES | ED (80-100) [1] | lokale Verträglichkeit (Merkmale einer lokalen Gewebeschädigung im Bereich der Injektionsstelle) [2]
CCOC(=O)c1cn(C2CC2)c2cc(N3CCN(CC)CC3)c(F)cc2c1=O [Substanz B] | 2.5 mg/kg | –
CCN1CCN(c2cc3c(cc2F)c(=O)c(C(=O)O)cn3C2CC2)CC1 [Substanz A] | 2.5 mg/kg | –
CCOC(=O)c1cn(C2CC2)c2cc(N3CCN(CC)CC3)c(F)cc2c1=O [Beispiel 1, 1-Cyclopropyl-6-fluor-7-(4-ethyl-1-piperazinyl)-1,4-dihydro-4-oxo-chinolin-3-carbonsäureethylester] | – | keine Merkmale einer lokalen Gewebeschädigung

— EP0205029A2, “Quinolinecarboxylic acids with an antibacterial activity” (BAYER AG, priority 1985, dated 1986)
